Experiments:
pigweed = experiment: Test B pre/postemergence pigweed; assay type: in vivo, Amaranthus retroflexus
Procedure, shortened: (§1)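 Herbicidal effect was estimated by eye on a ten-point control scale after plants spent twelve to sixteen days in a greenhouse following soil or foliar treatment. Foliar sprays targeted plants at one to four leaves; all doses were formulated in a non-phytotoxic solvent with surfactant.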

smallflower flatsedge = experiment: Test B flood test smallflower flatsedge; assay type: in vivo, Cyperus difformis
Procedure, shortened: (§2)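 Read-out is a visual response score from 0 (no effect) to 10 (complete control), assigned by comparison with untreated controls. Treatment was applied at the 2-leaf stage, and plants stayed in the greenhouse for twelve to sixteen days before scoring.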

purple nutsedge = experiment: Test B pre/postemergence purple nutsedge; assay type: in vivo, Cyperus rotundus
Procedure, shortened: as §1

bamyardgrass = experiment: Test B flood test barnyardgrass; assay type: in vivo, Echinochloa crus-galli
Procedure, shortened: as §2

crabgrass = experiment: Test B pre/postemergence crabgrass; assay type: in vivo, Digitaria sanguinalis
Procedure, shortened: as §1

rape = experiment: Test B pre/postemergence rape; assay type: in vivo, Brassica napus
Procedure, shortened: as §1

surinam grass = experiment: Test B pre/postemergence surinam grass; assay type: in vivo, Brachiaria decumbens
Procedure, shortened: as §1

giant foxtail = experiment: Test B pre/postemergence giant foxtail; assay type: in vivo, Setaria faberii
Procedure, shortened: as §1

blackgrass = experiment: Test B pre/postemergence blackgrass; assay type: in vivo, Alopecurus myosuroides
Procedure, shortened: as §1

rice = experiment: Test B flood test rice; assay type: in vivo, Oryza sativa
Procedure, shortened: as §2

sugar beet = experiment: Test B pre/postemergence sugar beet; assay type: in vivo, Beta vulgaris
Procedure, shortened: as §1

soybean = experiment: Test B pre/postemergence soybean; assay type: in vivo, Glycine max
Procedure, shortened: as §1

cocklebur = experiment: Test B pre/postemergence cocklebur; assay type: in vivo, Xanthium strumarium
Procedure, shortened: as §1

wheat = experiment: Test B pre/postemergence wheat; assay type: in vivo, Triticum aestivum
Procedure, shortened: as §1

morningglory = experiment: Test B pre/postemergence morningglory; assay type: in vivo, Ipomoea hederacea
Procedure, shortened: as §1

duck salad = experiment: Test B flood test duck salad; assay type: in vivo, Heteranthera limosa
Procedure, shortened: as §2

corn = experiment: Test B pre/postemergence corn; assay type: in vivo, Zea mays
Procedure, shortened: as §1

velvetleaf = experiment: Test B pre/postemergence velvetleaf; assay type: in vivo, Abutilon theophrasti
Procedure, shortened: as §1

wild oat = experiment: Test B pre/postemergence wild oat; assay type: in vivo, Avena fatua
Procedure, shortened: as §1

[1] = Postemergence, Rate 250 g/ha, scale 0 to 10
[2] = Postemergence, Rate 500 g/ha, scale of 0 to 10 where 0 is no effect and 10 is complete control
[3] = Preemergence, Rate 62 g/ha, scale 0 to 10 (0 no effect, 10 complete control)
[4] = Preemergence, Rate 125 g/ha, scale of 0 to 10 where 0 is no effect and 10 is complete control
[5] = Preemergence, Rate 250 g/ha, scale 0 to 10, 0 is no effect, 10 is complete control
[6] = Preemergence, Rate 500 g/ha, scale 0 to 10, 0 is no effect, 10 is complete control
[7] = Rate 125 g/ha, Postemergence, scale 0 to 10, 0 is no effect, 10 is complete control
[8] = Postemergence block (flood test species), Rate 250 g/ha, scale 0 to 10
[9] = Postemergence section (flood test species), Rate 500 g/ha, scale of 0 to 10 where 0 is no effect and 10 is complete control
[10] = Rate 125 g/ha, Postemergence section (flood test species), scale 0 to 10, 0 is no effect, 10 is complete control
[11] = Rate 62 g/ha, Postemergence (flood test species), scale of 0 to 10 where 0 is no effect and 10 is complete control
[12] = Rate 62 g/ha, Postemergence, scale of 0 to 10 where 0 is no effect and 10 is complete control

CC(C)N(C(=O)n1oc(=O)n(C2CCCCCC2)c1=O)C1=CCCCC1 [Compound 428]
Redroot pigweed plant response rating (pigweed; [1]): 0 | Redroot pigweed plant response rating (pigweed; [2]): 3 | Plant response rating, Redroot pigweed (pigweed; [3]): 0 | Plant response rating, Redroot pigweed (pigweed; [4]): 0 | Redroot pigweed plant response rating (pigweed; [5]): 0 | Redroot pigweed plant response rating (pigweed; [6]): 0 | Redroot pigweed plant response rating (pigweed; [7]): 0 | S. Flatsedge plant response rating (smallflower flatsedge; [8]): 0 | S. Flatsedge plant response rating (smallflower flatsedge; [9]): 9 | S. Flatsedge plant response rating (smallflower flatsedge; [10]): 0 | Nutsedge plant response rating (purple nutsedge; [1]): 0 | Nutsedge plant response rating (purple nutsedge; [2]): 0 | Plant response rating, Nutsedge (purple nutsedge; [3]): 0 | Plant response rating, Nutsedge (purple nutsedge; [4]): 0 | Nutsedge plant response rating (purple nutsedge; [5]): 0 | Nutsedge plant response rating (purple nutsedge; [6]): 0 | Nutsedge plant response rating (purple nutsedge; [7]): 0 | Barnyardgrass plant response rating (bamyardgrass; [8]): 2 | Barnyardgrass plant response rating (bamyardgrass; [9]): 5 | Barnyardgrass plant response rating (bamyardgrass; [11]): 0 | Barnyardgrass plant response rating (bamyardgrass; [10]): 0 | Crabgrass plant response rating (crabgrass; [1]): 0 | Crabgrass plant response rating (crabgrass; [2]): 3 | Plant response rating, Crabgrass (crabgrass; [3]): 2 | Plant response rating, Crabgrass (crabgrass; [4]): 7 | Crabgrass plant response rating (crabgrass; [5]): 9 | Crabgrass plant response rating (crabgrass; [6]): 10 | Crabgrass plant response rating (crabgrass; [12]): 0 | Crabgrass plant response rating (crabgrass; [7]): 0 | Rape plant response rating (rape; [1]): 0 | Rape plant response rating (rape; [2]): 0 | Plant response rating, Rape (rape; [3]): 0 | Plant response rating, Rape (rape; [4]): 0 | Rape plant response rating (rape; [5]): 0 | Rape plant response rating (rape; [6]): 0 | Rape plant response rating (rape; [7]): 0 | B. signalgrass plant response rating (surinam grass; Postemergence, Rate 250 g/ha, scale 0 to 10, 0 no effect, 10 complete control): 0 | B. signalgrass plant response rating (surinam grass; [2]): 0 | Plant response rating, B. signalgrass (surinam grass; [3]): 0 | Plant response rating, B. signalgrass (surinam grass; [4]): 0 | B. signalgrass plant response rating (surinam grass; [5]): 0 | B. signalgrass plant response rating (surinam grass; [6]): 3 | B. signalgrass plant response rating (surinam grass; [12]): 0 | B. signalgrass plant response rating (surinam grass; [7]): 0 | Giant foxtail plant response rating (giant foxtail; [1]): 0 | Giant foxtail plant response rating (giant foxtail; [2]): 0 | Plant response rating, Giant foxtail (giant foxtail; [3]): 0 | Plant response rating, Giant foxtail (giant foxtail; [4]): 7 | Giant foxtail plant response rating (giant foxtail; [5]): 8 | Giant foxtail plant response rating (giant foxtail; [6]): 10 | Giant foxtail plant response rating (giant foxtail; [12]): 0 | Giant foxtail plant response rating (giant foxtail; [7]): 0 | Blackgrass plant response rating (blackgrass; [1]): 3 | Blackgrass plant response rating (blackgrass; [2]): 4 | Plant response rating, Blackgrass (blackgrass; [3]): 0 | Plant response rating, Blackgrass (blackgrass; [4]): 0 | Blackgrass plant response rating (blackgrass; [5]): 0 | Blackgrass plant response rating (blackgrass; [6]): 2 | Blackgrass plant response rating (blackgrass; [12]): 0 | Blackgrass plant response rating (blackgrass; [7]): 0 | Rice plant response rating (rice; [8]): 2 | Rice plant response rating (rice; [9]): 2 | Rice plant response rating (rice; [10]): 0 | Sugarbeets plant response rating (sugar beet; [1]): 0 | Sugarbeets plant response rating (sugar beet; [2]): 0 | Plant response rating, Sugarbeets (sugar beet; [3]): 0 | Plant response rating, Sugarbeets (sugar beet; [4]): 0 | Sugarbeets plant response rating (sugar beet; [5]): 0 | Sugarbeets plant response rating (sugar beet; [6]): 0 | Sugarbeets plant response rating (sugar beet; [7]): 0 | Soybean plant response rating (soybean; [1]): 2 | Soybean plant response rating (soybean; [2]): 3 | Plant response rating, Soybean (soybean; [3]): 0 | Plant response rating, Soybean (soybean; [4]): 0 | Soybean plant response rating (soybean; [5]): 0 | Soybean plant response rating (soybean; [6]): 0 | Soybean plant response rating (soybean; [7]): 1 | Cocklebur plant response rating (cocklebur; [1]): 0 | Cocklebur plant response rating (cocklebur; [2]): 1 | Plant response rating, Cocklebur (cocklebur; [3]): 0 | Plant response rating, Cocklebur (cocklebur; [4]): 0 | Cocklebur plant response rating (cocklebur; [5]): 0 | Cocklebur plant response rating (cocklebur; [6]): 0 | Cocklebur plant response rating (cocklebur; [12]): 0 | Cocklebur plant response rating (cocklebur; [7]): 0 | Wheat plant response rating (wheat; [1]): 0 | Wheat plant response rating (wheat; [2]): 0 | Plant response rating, Wheat (wheat; [3]): 0 | Plant response rating, Wheat (wheat; [4]): 0 | Wheat plant response rating (wheat; [5]): 0 | Wheat plant response rating (wheat; [6]): 0 | Wheat plant response rating (wheat; [7]): 0 | Morningglory plant response rating (morningglory; [1]): 2 | Morningglory plant response rating (morningglory; [2]): 3 | Plant response rating, Morningglory (morningglory; [3]): 0 | Plant response rating, Morningglory (morningglory; [4]): 0 | Morningglory plant response rating (morningglory; [5]): 0 | Morningglory plant response rating (morningglory; [6]): 0 | Morningglory plant response rating (morningglory; [7]): 1 | Ducksalad plant response rating (duck salad; [8]): 3 | Ducksalad plant response rating (duck salad; [9]): 5 | Ducksalad plant response rating (duck salad; [11]): 0 | Ducksalad plant response rating (duck salad; [10]): 0 | Corn plant response rating (corn; [1]): 0 | Corn plant response rating (corn; [2]): 0 | Plant response rating, Corn (corn; [3]): 0 | Plant response rating, Corn (corn; [4]): 0 | Corn plant response rating (corn; [5]): 0 | Corn plant response rating (corn; [6]): 0 | Corn plant response rating (corn; [12]): 0 | Corn plant response rating (corn; [7]): 0 | Velvetleaf plant response rating (velvetleaf; [1]): 2 | Velvetleaf plant response rating (velvetleaf; [2]): 7 | Plant response rating, Velvetleaf (velvetleaf; [3]): 0 | Plant response rating, Velvetleaf (velvetleaf; [4]): 0 | Velvetleaf plant response rating (velvetleaf; [5]): 0 | Velvetleaf plant response rating (velvetleaf; [6]): 0 | Velvetleaf plant response rating (velvetleaf; [7]): 0 | Wild oats plant response rating (wild oat; [1]): 0 | Wild oats plant response rating (wild oat; [2]): 0 | Plant response rating, Wild oats (wild oat; [3]): 0 | Plant response rating, Wild oats (wild oat; [4]): 0 | Wild oats plant response rating (wild oat; [5]): 0 | Wild oats plant response rating (wild oat; [6]): 2 | Wild oats plant response rating (wild oat; [7]): 0

Reference: patent US6737383B1, “Herbicidal oxadiazolidines” (priority 1999, dated 2004)
